In patent US20250282812A1, “ANTIVIRAL NUCLEOSIDE ANALOGUE, AND PHARMACEUTICAL COMPOSITION AND USE THEREOF” (SHANGHAI INSTITUTE OF MATERIA MEDICA , CHINESE ACADEMY OF …, priority 2022, published 2025):
≈ marks a conversion by molar mass, not a printed value.

Tests used:
[1] = test system: influenza virus (IFV) A/California/07/2009 (H1N1) pdm09 strain; test: In vitro activity against influenza virus (CPE, CCK8, MDCK cells); format: cell-based; conditions: 120 h, read-out: IFV (MDCK) EC50
[2] = test system: respiratory syncytial virus (RSV) A long strain; test: In vitro activity against respiratory syncytial virus (CPE, CCK8, HEp-2 cells); format: cell-based; conditions: human respiratory syncytial virus, 120 h, MOI=0.02, 5 days
SFTSV-Nluc = test: microbe, parasite or virus in culture; format: cell-based, severe fever with thrombocytopenia syndrome virus (SFTSV); conditions: Severe fever with thrombocytopenia syndrome virus, Vero, 48 h
in vitro = conditions: dog
[3] = Solubility of compounds in water; conditions: thermodynamic from solid
[4] = Cytotoxicity in HEp-2 cells (CCK8); conditions: human
[5] = Stability test of compounds in solutions at different pH values
[6] = test system: influenza virus Influenza A/PR/8/34 (PR8); test: In vivo efficacy for influenza virus in mice; parameters: species or system Balb/C mice
[7] = test system: respiratory syncytial virus (RSV A2); test: In vivo efficacy for respiratory syncytial virus (RSV) in mice
[8] = buffered saline solution pH 4.0, 3 h
[9] = buffered saline solution pH 4.0, 6 h
[10] = buffered saline solution pH 4.0, 9 h
[11] = buffered saline solution pH 4.0, 12 h
[12] = buffered saline solution pH 4.0, 15 h
[13] = buffered saline solution pH 4.0, 18 h
[14] = buffered saline solution pH 4.0, 21 h
[15] = buffered saline solution pH 4.0, 24 h
[16] = buffered saline solution pH 6.8, 3 h
[17] = buffered saline solution pH 6.8, 6 h
[18] = buffered saline solution pH 6.8, 9 h
[19] = buffered saline solution pH 6.8, 12 h
[20] = buffered saline solution pH 6.8, 15 h
[21] = buffered saline solution pH 6.8, 18 h
[22] = buffered saline solution pH 6.8, 21 h
[23] = buffered saline solution pH 6.8, 24 h

Structure (SMILES) | solubility at 15 min [3] [µg/mL] | Content reduction (%) [5, 8] [%] | Content reduction (%) [5, 9] [%] | Content reduction (%) [5, 10] [%] | Content reduction (%) [5, 11] [%] | Content reduction (%) [5, 12] [%] | Content reduction (%) [5, 13] [%] | Content reduction (%) [5, 14] [%] | Content reduction (%) [5, 15] [%] | Content reduction (%) [5, 16] [%] | Content reduction (%) [5, 17] [%] | Content reduction (%) [5, 18] [%] | Content reduction (%) [5, 19] [%] | Content reduction (%) [5, 20] [%] | Content reduction (%) [5, 21] [%] | Content reduction (%) [5, 22] [%] | Content reduction (%) [5, 23] [%] | further results
CC(=O)OC[C@@]1(F)O[C@@H](n2ccc(=O)n(COC(=O)c3cccnc3)c2=O)[C@H](OC(C)=O)[C@@H]1OC(C)=O [Compound X219] | 700 (≈ 1340 µM) | 0.22 | 0.34 | 0.44 | 0.62 | 0.70 | 0.78 | 0.93 | 1.02 | 1.06 | 1.86 | 2.92 | 3.96 | 5.27 | 6.01 | 7.02 | 8.38 | EC50 [1]: 3.92 µM; EC50 [2]: 2.6 µM; EC50 (SFTSV-Nluc): 3.39 µM; inhibition at 10 µM (SFTSV-Nluc; read-out: Inhibition rate (10 μM)): 91.7%; CC50 (in vitro): > 10 µM; CC50 at 5 days [4]: > 10 µM
CC(=O)OC[C@@]1(F)O[C@@H](n2ccc(=O)n(COC(=O)c3cccnc3)c2=O)[C@H](OC(C)=O)[C@@H]1OC(C)=O.Cl [X219 hydrochloride] | 4740 | 0.24 | 0.28 | 0.34 | 0.55 | 0.64 | 0.72 | 0.73 | 0.87 | 0.98 | 2.03 | 3.09 | 4.10 | 5.13 | 6.13 | 7.07 | 8.02 | pulmonary viral load compared with the PR8+vehicle group ([6]; […], X219 hydrochloride 10, 20, 30 mpk intragastric once daily, Day 4): significantly reduced; body weight after 4 days of infection compared with the initial body weight ([6]; […], intragastric once daily Day 0-3, X219 hydrochloride 10, 20 and 30 mpk, favipiravir 200 mpk): did not change significantly; reduction of pulmonary viral load compared with the PR8+vehicle group ([6]; dose 20 mg/kg intragastric once daily, Day 4): greater than 4 log10; reduction of pulmonary viral load compared with the PR8+vehicle group ([6]; dose 30 mg/kg intragastric once daily, Day 4): greater than 4 log10; levels of inflammatory factors (IL-6, IL-8, IL-1B, TNF-α, ISG-15, and TNF-1B) in the lungs compared with the PR8+vehicle group ([6]; lung tissue, Day 4): significantly lower; inhibitory effect on virus compared with the positive drug favipiravir (200 mpk) ([6]; pulmonary viral load, Day 4): significantly better; reduction in the pulmonary viral load compared with the vehicle group ([7]; 20 mpk intragastric once daily, Day 4): about 0.7 log10; change in the body weight ([7]; RSV A2-infected BALB/C mice, X219 hydrochloride 20 mpk or X28-1 10 mpk intragastric once daily): began to show an increase in the body weight on Day 3
